pIC50: −log10 of the molar value.
Experiments:
[1] = tested on: Chromo bacterium violaceum; assay: Agar disc diffusion antibacterial test; conditions: for diameter of clear zone inhibition / Inhibition %: C, (-) Chromo bacterium violaceum; for diameter of clear zone inhibition: 20 µL of 100 µM on 6 mm disc, Control (DMSO) = 6 mm; for Inhibition %: (T–C)/T × 100
BSA [2] = target: T1, BSA (Bos taurus, UniProt P02769); assay: BSA binding by fluorescence emission titration; parameters: species or system bovine; conditions: for KSV (Stern-Volmer binding constant), BSA binding, Method–I / Kass (association binding constant), BSA binding, Stern–Volmer Method–II / n (number of binding sites), BSA binding, Stern–Volmer Method–II: BSA emission 350 nm; for Kq (bimolecular quenching rate constant), BSA binding, Stern–Volmer Method–I: Kq=KSV/τ0, τ0 = 10^−8 S, BSA emission 350 nm (λex 278 nm); for P (ratio of fluorescence quantum efficiency), BSA binding: intercept of F/F0 vs 1/[BSA]; for ΔGb°, BSA binding, Stern–Volmer Method–II: −RT ln Kass, T = 298 K
T1 construct: purchased Sigma Aldrich
T1 sequence (P02769 25-607): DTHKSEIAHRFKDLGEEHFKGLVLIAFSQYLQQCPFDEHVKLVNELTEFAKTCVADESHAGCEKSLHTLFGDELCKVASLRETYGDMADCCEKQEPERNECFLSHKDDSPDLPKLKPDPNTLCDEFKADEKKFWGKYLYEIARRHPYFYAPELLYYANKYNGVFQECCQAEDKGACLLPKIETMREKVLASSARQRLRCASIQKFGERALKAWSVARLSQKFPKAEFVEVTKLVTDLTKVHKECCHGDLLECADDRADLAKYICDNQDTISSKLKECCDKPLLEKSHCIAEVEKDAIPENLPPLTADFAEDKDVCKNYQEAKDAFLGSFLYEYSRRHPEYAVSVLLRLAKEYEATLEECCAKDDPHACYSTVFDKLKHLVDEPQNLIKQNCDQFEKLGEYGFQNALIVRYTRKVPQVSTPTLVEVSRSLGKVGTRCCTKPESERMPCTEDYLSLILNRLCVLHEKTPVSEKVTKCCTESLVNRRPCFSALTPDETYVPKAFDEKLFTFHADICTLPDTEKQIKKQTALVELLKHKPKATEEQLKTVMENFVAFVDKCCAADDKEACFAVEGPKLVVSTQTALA
Experimental: The DNA/BSA binding properties were acquired from the emission spectral titration with the supporting of the JASCO FP-6300 spectrofluorometer between the 200 and 800 nm regions. It is additional evidence for the complexes’ manner of DNA binding. While DNA (200 µM) was present or absent, we vigilantly monitored the intensity variations between 610 nm and 510 nm during the initial emission and excitation of EB [27]. Correspondingly, the emission titrations for BSA interaction with different concentrations between 2.5 μM and 25 μM for all samples were conducted in a Tris-HCl buffer solution (pH: 7.4) between the regions of 300 nm and 400 nm. […]
experiments were measured for BSA interaction in the range of 300 –400 nm, using a fluorescence cuvette with a path length of 1 cm. all test compounds have no substantial fluorescence emission rate in any of the above ranges in Tris-HCl buffer solution (pH=7.2).
Therefore, BSA interaction tests are not impaired in the interaction with the complexes [ 28].
In the experiment, the emission of BSA solution (25 µM) in 50 mM Tris –HCl /1 mM NaCl […]
While raising the test compound ’s concentration (0-25 µM), the intensity of the BSA decreases due to static quenching in the generation of ground state BSA – complex adduct. The observations of the BSA molecule at the excitation wavelength (278 nm) and at the emission wavelength (350 nm) that both of […]
Fcorr = Fobs × e[(Aex× dex) + (Aem× dem)]/ 2 = Fobs × e(Aex + Aem)/ 2 (S12) Fcorr and F obs are represented as the IFE-corrected emission and observed (uncorrected) emission intensities, respectively. d ex and d em are denoted as the cuvette path lengths in the […]
excitation and emission directions, respectively. Also, the alteration in absorbance (OD) at the excitation and fluorescence wavelengths, respectively, is sometimes referred to as A ex and […]
F = 1+KSV [Q] = 1+ Kq τ0 (S13)
Where [Q] is represented as the sample concentration (quencher), the emission intensities F 0 and F are those in the […] of the quencher, respectively.
F ) = log Kass + nlog [Q] (S14)
KEB[EB] = Kapp[compound] (S15)
∆F = (F 0–F), Equation (16) was utilized to examine the Lineweaver –Burk binding constant (KLB) from the linear regression plot of 1/(F0–F) vs 1/[Q]. […]
γ =(F0–F)/F0, CF is denoted as the concentration of sample alone, the linear regression plot of (γ/CF) vs γ was employed to support equation (17), which was used to determine the values of KSA and n, respectively.
2.2.6. FRET calculation by Förster’s theory
Calculating FRET (Fluorescence Resonance Energy Transfer) is a crucial approach in determining the critical distance (r) between donor (BSA) and acceptor (test compound) molecules, in which the binding affinity between the BSA-complex systems could be evalued according to Förster’s theory. The overlap of the emission spectrum of the donor (BSA) and the absorption spectrum of the acceptor (compound) describes that the acceptor (compound) group may get excited as a result of the excited donor's (BSA) energy being lost to the ground

BSA [3] = target: T1, BSA; assay: BSA binding by UV–vis absorption titration; parameters: species or system bovine; conditions: for Δλ (nm) (blue shift of BSA band at 278 nm) / Chromism (% H) (hyperchromism): BSA 25 μM, compound 0–25 μM; for Chromism (% H) (hyperchromism): 278 nm; for Binding Constant Kapp by BH Method: BSA, UV–Vis titration; for ΔGb°: −RT ln Kapp, T = 298 K
Experimental: UV–vis spectral titrations were performed with a 25 μM concentration of BSA at room temperature with a 5 mM Tris-HCl/50 mM NaCl buffer solution (pH: 7.4). When the sample concentrations (0–25 μM) increased in the same BSA concentration solution, the alteration in the absorption band at 278 nm was continuously monitored.
2.2.8. UV-Vis absorption titrations for the BSA binding assay
The test compound concentrations (0 –25 μM) were varied during the electronic absorption titrations, which were conducted at a fixed BSA concentration (25 μM) in aqueous media (pH = 7.2) at 25 °C. The property of BSA is also confirmed by the observation of a strong absorption band in the UV region at 278 nm. […] The increment of the test compound causes a gradual increase in the BSA absorption band, which leads to the […]
owing to non-covalent interaction of the test compound with BSA [33].
∆Amax = (A∞ - A0), ∆A = (Ax - A0), A0 , Ax and A∞ are denoted as the absorbance of free BSA, the absorbance of BSA in the increment concentrations of the compound, and the absorbance value of the fully bound form of bovine serum albumin with substance, respectively.

Aspergillus niger = assay: Agar disc diffusion antifungal test; conditions: for diameter of clear zone inhibition / Inhibition %: H; for diameter of clear zone inhibition: 20 µL of 100 µM on 6 mm disc, Control (DMSO) = 6 mm; for Inhibition %: (T–C)/T × 100
Staphylococcus Aureus = assay: Agar disc diffusion antibacterial test; conditions: for diameter of clear zone inhibition / Inhibition %: F, (+) Staphylococcus Aureus; for diameter of clear zone inhibition: 20 µL of 100 µM on 6 mm disc, Control (DMSO) = 6 mm; for Inhibition %: (T–C)/T × 100
[4] = Hydroxyl radical scavenging assay; assay type: biochemical; conditions: 230 nm
[5] = DPPH radical scavenging assay; assay type: biochemical; conditions: 517 nm
Candida albicans = assay: Agar disc diffusion antifungal test; conditions: for diameter of clear zone inhibition / Inhibition %: I; for diameter of clear zone inhibition: 20 µL of 100 µM on 6 mm disc, Control (DMSO) = 6 mm; for Inhibition %: (T–C)/T × 100
[6] = read-out: diameter of clear zone inhibition

Structure (SMILES)	Inhibition % [1] [%]	KSV (Stern-Volmer binding constant), BSA binding, Method–I (BSA [2]) [M⁻¹]	n (number of binding sites), BSA binding, Stern–Volmer Method–II (BSA [2])	Kq (bimolecular quenching rate constant), BSA binding, Stern–Volmer Method–I (BSA [2]) [M⁻¹ s⁻¹]	P (ratio of fluorescence quantum efficiency), BSA binding (BSA [2])	ΔGb°, BSA binding, Stern–Volmer Method–II (BSA [2])	Δλ (nm) (blue shift of BSA band at 278 nm) (BSA [3])	Chromism (% H) (hyperchromism) (BSA [3]) [%]	ΔGb° (BSA [3]) [kJmol^−1]	Inhibition % (Aspergillus niger) [%]	Inhibition % (Staphylococcus Aureus) [%]	% Inhibition, hydroxyl radical ([4]; 40 µM) [%]	% Inhibition, hydroxyl radical ([4]; 80 µM) [%]	% Inhibition, hydroxyl radical ([4]; 120 µM) [%]	% Inhibition, hydroxyl radical ([4]; 160 µM) [%]	% Inhibition, hydroxyl radical ([4]; 200 µM) [%]	% Inhibition, hydroxyl radical ([4]; 240 µM) [%]	% Inhibition, DPPH ([5]; 40 µM) [%]	% Inhibition, DPPH ([5]; 80 µM) [%]	% Inhibition, DPPH ([5]; 120 µM) [%]	other results
[O-]c1ccccc1N=Cc1ccc(N2CCOCC2)cc1.[O-]c1ccccc1N=Cc1ccc(N2CCOCC2)cc1.[Zn+2].c1cnc2c(c1)ccc1cccnc12 [(2b), [Zn^II(L)2(phen)]]	45	79350	1.009	7.935e+12	0.285	–27.25 kJM^−1	8	62.16	−24.7590	45	45	08.33	17.12	27.05	36.68	47.03	57.83	12.82	24.88	30.89	diameter of clear zone inhibition [1]: 11 mm; Kass (association binding constant), BSA binding, Stern–Volmer Method–II (BSA [2]): 59840 M⁻¹; Binding Constant Kapp by BH Method (BSA [3]): 21878 M⁻¹; diameter of clear zone inhibition (Aspergillus niger): 11 mm; diameter of clear zone inhibition (Staphylococcus Aureus): 11 mm; % Inhibition, DPPH ([5]; 160 µM): 40.27%; % Inhibition, DPPH ([5]; 200 µM): 50.12%; % Inhibition, DPPH ([5]; 240 µM): 60.66%; pIC50 [5]: 3.70; diameter of clear zone inhibition (Candida albicans): 10 mm; Inhibition % (Candida albicans): 40%
Oc1ccccc1N=Cc1ccc(N2CCOCC2)cc1 [(HL), 2-(4-morpholinobenzylideneamino)phenol]	45	26390	0.958	2.639e+12	0.225	–23.86 kJM^−1	2	47.79	−22.3387	40	33	07.26	14.43	25.52	33.86	40.73	50.68	09.45	15.21	26.36	zone of inhibition at 100 µM [1, 6]: 11 mm; zone of inhibition at 100 µM (Aspergillus niger; [6]): 10 mm; zone of inhibition at 100 µM (Staphylococcus Aureus; Staphylococcus aureus, read-out: diameter of clear zone inhibition): 9 mm; % Inhibition, DPPH ([5]; 160 µM): 34.56%; % Inhibition, DPPH ([5]; 200 µM): 39.41%; % Inhibition, DPPH ([5]; 240 µM): 52.45%; Inhibition % (Candida albicans): 40%; zone of inhibition at 100 µM (Candida albicans; [6]): 10 mm
[Cu+2].[O-]c1ccccc1N=Cc1ccc(N2CCOCC2)cc1.[O-]c1ccccc1N=Cc1ccc(N2CCOCC2)cc1.c1cnc2c(c1)ccc1cccnc12 [(1b), [Cu^II(L)2(phen)]]	45	95640	1.021	9.564e+12	0.322	–27.71 kJM^−1	8	64.70	−25.9330	40	45	09.94	18.86	32.85	39.84	51.93	62.05	18.11	30.88	36.82	diameter of clear zone inhibition [1]: 11 mm; Kass (association binding constant), BSA binding, Stern–Volmer Method–II (BSA [2]): 71990 M⁻¹; Binding Constant Kapp by BH Method (BSA [3]): 35140 M⁻¹; diameter of clear zone inhibition (Aspergillus niger): 10 mm; diameter of clear zone inhibition (Staphylococcus Aureus): 11 mm; pIC50 ([4]; read-out: IC50, hydroxyl radical inhibition): 3.70; % Inhibition, DPPH ([5]; 160 µM): 52.42%; % Inhibition, DPPH ([5]; 200 µM): 58.65%; % Inhibition, DPPH ([5]; 240 µM): 70.12%; pIC50 [5]: 3.80; diameter of clear zone inhibition (Candida albicans): 11 mm; Inhibition % (Candida albicans): 45%

Reference: paper PMC9775322, “An Integrated Analysis of Mechanistic Insights into Biomolecular Interactions and Molecular Dynamics of Bio-Inspired Cu(II) and Zn(II) Complexes towards DNA/BSA/SARS-CoV-2 3CL^pro by Molecular Docking-Based Virtual Screening and FRET Detection” (Biomolecules, 2022)
